Data on 34 molecules can be found in patent US6750228B1, “Aromatic sulfone hydroxamic acid metalloprotease inhibitor” (priority 1997, dated 2004).

pIC50: −log10 of the molar value.

Assay in all cases: biochemical
For experiment [1], the target named is T1, MMP-1 (Homo sapiens, UniProt P03956).
T1 construct: made in house; host or cells: transfected HT-1080 cells (provided by Dr. Harold Welgus, Washington University)
T1 sequence (P03956 100-469): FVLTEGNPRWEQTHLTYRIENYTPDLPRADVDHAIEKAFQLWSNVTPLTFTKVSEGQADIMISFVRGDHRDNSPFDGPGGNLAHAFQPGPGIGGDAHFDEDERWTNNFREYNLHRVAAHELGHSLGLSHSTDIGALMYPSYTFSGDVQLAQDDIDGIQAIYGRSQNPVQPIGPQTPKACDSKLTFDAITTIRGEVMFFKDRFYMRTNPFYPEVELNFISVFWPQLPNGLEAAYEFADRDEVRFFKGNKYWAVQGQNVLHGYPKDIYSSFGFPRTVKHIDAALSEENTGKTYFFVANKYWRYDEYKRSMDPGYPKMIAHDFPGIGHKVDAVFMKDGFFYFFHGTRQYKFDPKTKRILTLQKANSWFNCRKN
The settings on record: recombinant human MMP-1, MCA peptide substrate 4 μM, pH 7.5, room temperature; read-out: MMP-1 IC50. In outline:
(§1)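 APMA- or trypsin-activated human MMPs (MMP-1 from transfected HT-1080 cells, MMP-2 from transfected cells) preincubated with inhibitor in 1% DMSO at room temperature, then 4 μM MCA-Pro-Leu-Gly-Leu-Dpa-Ala-Arg-NH2 added in Tris/NaCl/CaCl2 buffer pH 7.5. IC50 from fluorescence reduction versus inhibitor concentration.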

Experiment [2] addresses T2, MMP-13 (Homo sapiens, UniProt P45452).
T2 construct: made in house; host or cells: baculovirus / insect cells
The settings on record: recombinant human MMP-13, MCA peptide substrate 4 μM, pH 7.5, room temperature; read-out: MMP-13 IC50. In outline: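 APMA- or trypsin-activated enzymes were preincubated with inhibitor for 5 min at room temperature, then the fluorogenic substrate MCA-Pro-Leu-Gly-Leu-Dpa-Ala-Arg-NH2 was added to a final 4 μM.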

Experiment [3] has as its target T3, MMP-2 (Homo sapiens, UniProt P08253).
T3 construct: made in house; provided by Dr. Gregory Goldberg, Washington University
T3 sequence (P08253 110-660): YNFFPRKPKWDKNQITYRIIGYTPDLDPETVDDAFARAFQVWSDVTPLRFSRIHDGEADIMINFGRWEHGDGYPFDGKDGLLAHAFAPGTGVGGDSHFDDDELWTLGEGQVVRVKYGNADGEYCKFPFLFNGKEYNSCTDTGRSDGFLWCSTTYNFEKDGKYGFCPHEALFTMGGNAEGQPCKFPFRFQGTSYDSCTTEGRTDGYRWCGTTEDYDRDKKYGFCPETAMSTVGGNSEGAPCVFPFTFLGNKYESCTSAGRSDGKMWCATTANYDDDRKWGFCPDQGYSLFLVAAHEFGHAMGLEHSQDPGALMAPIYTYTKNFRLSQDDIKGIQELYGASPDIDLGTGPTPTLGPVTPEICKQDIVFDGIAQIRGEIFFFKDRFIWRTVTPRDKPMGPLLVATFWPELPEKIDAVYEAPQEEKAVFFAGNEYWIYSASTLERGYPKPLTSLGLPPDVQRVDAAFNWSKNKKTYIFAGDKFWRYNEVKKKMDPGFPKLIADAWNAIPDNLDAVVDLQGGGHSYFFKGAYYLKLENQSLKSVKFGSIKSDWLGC
The following applies: recombinant human MMP-2, MCA peptide substrate 4 μM, pH 7.5, room temperature; read-out: MMP-2 IC50. In outline: as §1

As for `O=C(c1ccco1)N1CCC(C(=O)NO)(S(=O)(=O)c2ccc(N3CCC(OCc4ccc(Cl)cc4)CC3)cc2)CC1` [Example 432], the pIC50 in experiment [1] is less than 5.00; in experiment [2] it was 7.86; in experiment [3], 7.00.

With `O=C(c1ccco1)N1CCC(C(=O)NO)(S(=O)(=O)c2ccc(N3CCC(OCc4ccc(F)c(C(F)(F)F)c4)CC3)cc2)CC1` [Example 433], the pIC50 in experiment [1] was less than 5.00; in experiment [2], 6.35; in experiment [3], 5.46.

Take `O=C(c1ccco1)N1CCC(C(=O)NO)(S(=O)(=O)c2ccc(N3CCC(OCc4ccc(F)cc4C(F)(F)F)CC3)cc2)CC1` [Example 434]: the pIC50 in experiment [1] was less than 5.00; in experiment [2], 6.72; in experiment [3], 5.43.

Turning to `COc1ccc(C(=O)C2CCN(c3ccc(S(=O)(=O)C4(C(=O)NO)CCN(C(=O)OCc5ccccc5)CC4)cc3)CC2)cc1` [Example 435], the pIC50 in experiment [1] was less than 5.00; in experiment [2] it was 8.23; in experiment [3] it was 5.82.

Turning to `COc1ccc(C(=O)C2CCN(c3ccc(S(=O)(=O)C4(C(=O)NO)CCN(c5ccncc5)CC4)cc3)CC2)cc1` [Example 438], the pIC50 is less than 5.00 in experiment [1], 8.85 in experiment [2] and 6.80 in experiment [3].

As to `CC(C)N1CCC(C(=O)NO)(S(=O)(=O)c2ccc(OC(F)(F)F)cc2)CC1` [Example 439], the results for the pIC50 in experiment [1], in experiment [2] and in experiment [3] were less than 5.00, 5.97 and 5.80, respectively.

Turning to `CCCCOC1CCN(c2ccc(S(=O)(=O)C3(C(=O)NO)CCN(C4CC4)CC3)cc2)CC1` [Example 440], the figures for the pIC50 in experiment [1], in experiment [2] and in experiment [3] were less than 5.00, 7.57 and 6.62, respectively.

Turning to `COc1ccc(C(=O)C2CCN(c3ccc(S(=O)(=O)C4(C(=O)NO)CCN(C5CC5)CC4)cc3)CC2)cc1` [Example 441], the pIC50 in experiment [1] was less than 5.00; in experiment [2], 8.22; in experiment [3], 6.38.

Consider `CCCCOC1CCN(c2ccc(S(=O)(=O)C3(C(=O)NO)CCN(C(=O)OC(C)(C)C)CC3)cc2)CC1` [Example 442], for which the pIC50 in experiment [1] was less than 5.00; in experiment [2] it was 8.00; in experiment [3], 6.68.

Regarding `CCCCOC1CCN(c2ccc(S(=O)(=O)C3(C(=O)NO)CCNCC3)cc2)CC1` [Example 443], the results for the pIC50 in experiment [1], in experiment [2] and in experiment [3] were less than 5.00, 7.05 and 5.66, respectively.

As to `COCCN1CCC(C(=O)NO)(S(=O)(=O)c2ccc(N3CCC(OCc4ccc(Cl)cc4)CC3)cc2)CC1` [Example 445], the pIC50 in experiment [1] is less than 5.00; in experiment [2] it was 7.05; in experiment [3], 5.92.

For the molecule `COCCN1CCC(C(=O)NO)(S(=O)(=O)c2ccc(N3CCC(OCc4ccc(F)c(C(F)(F)F)c4)CC3)cc2)CC1` [Example 446], the pIC50 in experiment [1] was less than 5.00; in experiment [2], 6.57; in experiment [3], 5.15.

Consider `COCCN1CCC(C(=O)NO)(S(=O)(=O)c2ccc(N3CCC(OCc4ccc(F)cc4C(F)(F)F)CC3)cc2)CC1` [Example 447], for which the pIC50 in experiment [1] was less than 5.00; in experiment [2], 7.62; in experiment [3] it was 6.81.

On to `COCCN1CCC(C(=O)NO)(S(=O)(=O)c2ccc(N3CCC(OCc4ccc(F)cc4)CC3)cc2)CC1` [Example 448], for which the pIC50 in experiment [1] was less than 5.00; in experiment [2] it was 8.62; in experiment [3], 6.27.

`CC(C)N1CCC(C(=O)NO)(S(=O)(=O)c2ccc(Oc3ccc(OC(F)(F)F)cc3)cc2)CC1` [Example 453]: the pIC50 in experiment [1] was less than 5.00; in experiment [2] it was 9.40; in experiment [3] it was 7.46.

Take `O=C(NO)C1(S(=O)(=O)c2ccc(N3CCc4ccccc4C3)cc2)CCN(C2CC2)CC1` [Example 455]: the pIC50 in experiment [1] is less than 5.00; in experiment [2], 8.20; in experiment [3], 7.57.

`C#CCN1CCC(C(=O)NO)(S(=O)(=O)c2ccc(S(=O)(=O)c3ccccc3)cc2)CC1` [Example 457]: the pIC50 in experiment [1] is less than 5.00; in experiment [2], 5.74; in experiment [3], 5.57.

For the molecule `CC1CC(C)CN(C(=O)C2CCN(c3ccc(S(=O)(=O)C4(C(=O)NO)CCN(C(C)C)CC4)cc3)CC2)C1` (stereo not drawn) [Example 458], the pIC50 in experiment [1] was less than 5.00; in experiment [2], 6.68; in experiment [3], 5.68.

As for `O=C(NO)C1(S(=O)(=O)c2ccc(N3CCC([S+]([O-])c4ccccc4)CC3)cc2)CCN(C2CC2)CC1` (stereo not drawn) [Example 459], the pIC50 is less than 5.00 in experiment [1], 6.87 in experiment [2] and 5.51 in experiment [3].

For `CC(C)N1CCC(C(=O)NO)(S(=O)(=O)c2ccc(N3CCC(SCc4ccc(OC(F)(F)F)cc4)CC3)cc2)CC1` [Example 462], the pIC50 was less than 5.00 in experiment [1], 8.54 in experiment [2] and 7.10 in experiment [3].

For the molecule `COc1cc2c(cc1OC)CN(c1ccc(S(=O)(=O)C3(C(=O)NO)CCN(C4CC4)CC3)cc1)CC2` [Example 464], the pIC50 in experiment [1] was less than 5.00; in experiment [2] it was 6.92; in experiment [3] it was 6.40.

For `O=C(Nc1cccnc1)OC1CCN(c2ccc(S(=O)(=O)C3(C(=O)NO)CCOCC3)cc2)CC1` [Example 465], the pIC50 was less than 5.00 in experiment [1], 7.10 in experiment [2] and 6.43 in experiment [3].

For `O=C(NO)C1(S(=O)(=O)c2ccc(N3CC[C@@H](OCc4ccc(OC(F)(F)F)cc4)C3)cc2)CCOCC1` [Example 467], the results for the pIC50 in experiment [1], in experiment [2] and in experiment [3] were less than 5.00, 7.57 and 6.85, respectively.

Turning to `N#Cc1ccc(OC2CCN(c3ccc(S(=O)(=O)C4(C(=O)NO)CCOCC4)cc3)CC2)cc1` [Example 469], the pIC50 was less than 5.00 in experiment [1], 9.10 in experiment [2] and 7.92 in experiment [3].

As for `CC(=O)c1ccc(OC2CCN(c3ccc(S(=O)(=O)C4(C(=O)NO)CCOCC4)cc3)CC2)cc1` [Example 470], the pIC50 in experiment [1] is less than 5.00; in experiment [2] it was 6.85; in experiment [3], 5.70.

As for `CC(=O)c1ccc(OC2CCN(c3ccc(S(=O)(=O)C4(C(=O)NO)CCOCC4)cc3)CC2)c(Cl)c1` [Example 471], the figures for the pIC50 in experiment [1], in experiment [2] and in experiment [3] were less than 5.00, 5.62 and less than 5.00, respectively.

Consider `CCOCc1ccc(COC2CCN(c3ccc(S(=O)(=O)C4(C(=O)NO)CCOCC4)cc3)CC2)cc1` [Example 472], for which the figures for the pIC50 in experiment [1], in experiment [2] and in experiment [3] were less than 5.00, 8.40 and 6.70, respectively.

With `O=C(NO)C1(S(=O)(=O)c2ccc(N3CCC(c4cccc5c4CCCC5)CC3)cc2)CCOCC1` [Example 473], the pIC50 in experiment [1] is less than 5.00; in experiment [2], 6.80; in experiment [3], 5.48.

As to `N#Cc1cc(F)cc(OC2CCN(c3ccc(S(=O)(=O)C4(C(=O)NO)CCOCC4)cc3)CC2)c1` [Example 474], the pIC50 in experiment [1] is less than 5.00; in experiment [2], 7.92; in experiment [3], 6.52.

`O=C(NO)C1(S(=O)(=O)c2ccc(N3CCC(n4cnc5ccccc54)CC3)cc2)CCOCC1` [Example 475]: the pIC50 was less than 5.00 in experiment [1], 7.57 in experiment [2] and 6.30 in experiment [3].

With `CCNCc1ccc(COC2CCN(c3ccc(S(=O)(=O)C4(C(=O)NO)CCOCC4)cc3)CC2)cc1` [Example 476], the results for the pIC50 in experiment [1], in experiment [2] and in experiment [3] were less than 5.00, 7.60 and 6.85, respectively.

Take `CCCCCOc1ccc(COC2CCN(c3ccc(S(=O)(=O)C4(C(=O)NO)CCOCC4)cc3)CC2)cc1` [Example 477]: the pIC50 was less than 5.00 in experiment [1], 7.95 in experiment [2] and 6.80 in experiment [3].

In the case of `CC(C)CCOc1ccc(COC2CCN(c3ccc(S(=O)(=O)C4(C(=O)NO)CCOCC4)cc3)CC2)cc1` [Example 478], the pIC50 is less than 5.00 in experiment [1], 7.79 in experiment [2] and 6.51 in experiment [3].

For `O=C(NO)C1(S(=O)(=O)c2ccc(N3CCC(Oc4ccc(Br)cc4)CC3)cc2)CCOCC1` [Example 479], the pIC50 in experiment [1] was less than 5.00; in experiment [2], 8.30; in experiment [3] it was 7.22.

As usually defined, the pIC50 is the IC50 on a negative log10 scale, so that one unit is a factor of ten.
